Article PMC7828228, “Babesia Bovis Ligand-Receptor Interaction: AMA-1 Contains Small Regions Governing Bovine Erythrocyte Binding” (International Journal of Molecular Sciences, 2021)
Ends that are not written are not given here.

Assays:
bovine erythrocytes = experiment: Radiolabelled peptide bovine erythrocyte binding assay (initial screen)
Procedure: Peptide selection was based on the degree of conservation and the presence of functionally constricted regions found throughout B. bovis ama-1 gene. Twelve peptides were synthesised using the tert-butoxycarbonyl (t-Boc) strategy and solid-phase synthesis methodology. Cysteine residues were replaced by serine residue to avoid oxidation; a tyrosine residue was added to peptides lacking one in their native sequences to enable radiolabelling. The peptides were analysed using reversed-phase high-performance liquid chromatography (RP-HPLC) and MALDI-TOF mass spectrometry (Bruker Daltonics) after having been cleaved by the low–high hydrogen fluoride technique. Every peptide (10 μL) diluted at 1mg/mL in 4-(2-hydroxyethyl)-1-piperazineethanesulphonic acid buffered saline (HBS) was individually radiolabelled for 15 min using 3 μL Na^125I (100 mCi/mL; ARC) and 15 μL chloramine T (2.75 mg/mL). […] A gamma counter (Packard Cobra II) was used for measuring/quantifying single samples’ radioactivity.
(§1) The assays for every B. bovis AMA-1-derived synthetic peptide binding to bovine erythrocytes were carried out as described for P. falciparum, with some modifications. […] HABP bovine erythrocyte binding selection criteria were determined according to that established for P. falciparum. […]

bovine RBCs = experiment: Saturation assay of radiolabelled HABPs; format: binding; conditions: saturation analysis; 7.5 × 10^7 RBCs, radiolabelled HABP 0–6000 nM, ± unlabelled peptide ~26 μM, 90 min at RT, 1:1 interaction model
Procedure: Modified binding assays were carried out to determine kinetic constants associated with B. bovis AMA-1 HABP binding interaction with bovine RBCs. Briefly, 7.5 × 10^7 RBCs were incubated with a wide range of concentrations of each radiolabelled HABP (0–6000 nM) in the absence or presence of unlabelled peptide (~26 μM) at final 245 μL volume. Samples were incubated for 90 min at RT and then washed twice with HBS before measuring cell-associated radioactivity on a gamma counter. Equilibrium dissociation constants (kD), equivalent to the ligand concentration (moles/litre) occupying half of the receptors, were calculated by equilibrium phase curve (using a 1:1 interaction model). Hill coefficients (nH) were calculated by taking saturation results; positive cooperativity was assumed if nH had values higher than 1 which could have been the result of a binding site’s increased affinity due to a ligand’s previous binding to another site. Conversely, nH values lower than 1 would have indicated negative cooperativity (also called antagonism) and the first ligand molecule’s binding would have reduced the probability of a second molecule binding.

[1] = test system: trypsin-, chymotrypsin-, and neuraminidase-treated bovine erythrocytes; experiment: Binding assay with enzyme-treated erythrocytes; conditions: 37 °C, 1h 30 min, untreated RBC as control, SD below 5%
Procedure: A blood sample was obtained by jugular venepuncture from a clinically healthy Normande 18month-old bull and collected in anticoagulant tubes. The animal was properly restrained/fastened and then its head was secured by a strap and rope. After locating the external jugular vein and applying pressure, the area was disinfected with ethanol for inserting the needle at a 30° angle and 20 mL blood samples were collected in tubes containing sodium citrate using the closed system. The above procedures and animal maintenance and handling were carried out at the Remanso farm, according to guidelines for the care of large animals established by Universidad de Ciencias Aplicadas y Ambientales (U.D.C.A)’s ethics committee (regulated by agreement No. 285/2008) using the protocol described in the minute 201901. The collected blood was washed thrice with HBS (1:1 ratio) to eliminate the sera and the leucocyte layer by spinning at 1600× g for 5 min for each run. A 60% erythrocyte solution was incubated at 37 °C for 1h 30 min with trypsin (1 mg/mL), chymotrypsin (1 mg/mL) and neuraminidase (100 μU/mL). After three washes using 250× g for 3 min, 4 × 10^5 erythrocytes were incubated with 5 μM […] at 37 °C for 45 min in the dark. An assay was carried out with erythrocytes treated at 37 °C for 30 min or with 0.05% or 0.005% triton X-100 for 15 min at room temperature (RT) for using them as cell lysis controls. A FACSC Canto II cytometer (BD) was used for determining cell viability by analysing 100,000 events.
as §1

[2] = test system: bovine erythrocyte membrane receptor; experiment: Cross-linking assay (BS3, SDS-PAGE, autoradiography); format: binding; conditions: autoradiogram, Figure 2c
Procedure: Cross-linking assays were used in triplicate for evaluating B. bovis AMA-1 interaction with any membrane receptor. The assay consisted of incubating radiolabelled peptide with 7.5 × 10^7 bovine erythrocytes (v/v) at RT for 2 h at 4 rpm. A competition assay was used as control using an excess of non-radiolabelled peptide. The mixture was incubated for two hours at RT with 0.4 µg/mL bis(sulphosuccinimidyl) suberate (BS3) and then washed thrice with HBS. The cells were then lysed in 30 µL lysis buffer (15 µL buffer A (50 mM Tris-HCl, 100 mM NaCl and 0.1 mM EDTA) and 15 µL buffer B (0.5 M Tris-HCl, 10% SDS (w/v), 25% glycerol, 0.5% (w/v) bromophenol blue and […] β-mercaptoethanol, pH 6.8)) and spun at 14,000× g for 10 min. SDS-PAGE was used for separating the proteins and radioactivity signals were observed by autoradiography. Radiolabelled peptide 43437 (1 µM) binding competition assay involved using different non-radiolabelled peptide 42438 concentrations (0–160 µM).

[3] = molecular target: receptor on bovine erythrocytes having an apparent 75 kDa molecular weight (bovine (endogenous in bovine erythrocytes)); experiment: radioligand binding; saturation: 7.5 x 10^7 bovine erythrocytes, 125I-peptide 0-6000 nM without or with ~26 μM unlabelled peptide, 245 μL, 90 min at RT, HBS washes; 1:1 model, Hill plot
[4] = molecular target: receptor on bovine erythrocytes having an apparent 75 kDa molecular weight (bovine (endogenous in bovine erythrocytes)); experiment: radioligand binding; as the screen but on erythrocytes treated beforehand with trypsin (1 mg/mL), chymotrypsin (1 mg/mL) or neuraminidase (100 μU/mL); 1 h at 37 °C without shaking; untreated erythrocytes as control

RGVGMNWATYDKDSG [^395R-G^409]
interaction with bovine erythrocytes (binding activity, in words) (bovine erythrocytes; radiolabelled peptide-cell interaction assay, Figure 1b): did not interact with bovine erythrocytes

CPMHPVRDAIFGKWSGGSCV [compound 42443]
specific binding slope (binding activity) (bovine erythrocytes; 7.5 × 10^7 normal cells, 2 h at RT, radiolabelled peptide 20–200 nM, absence or presence of non-radiolabelled peptide 20 μM, 200 μL, triplicate, HABP if slope ≥0.01 (1%)): > 0.01
Kd (bovine RBCs): 2.4 µM
reduction of binding with chymotrypsin-treated erythrocytes ([1]; erythrocytes treated with chymotrypsin 1 mg/mL): 46%
reduction of binding with neuraminidase-treated erythrocytes ([1]; erythrocytes treated with neuraminidase 100 μU/mL): 42%
reduction of binding with trypsin-treated erythrocytes ([1]; erythrocytes treated with trypsin 1 mg/mL): a lesser effect
intensity of cross-linking interaction with the receptor [2]: significantly less intense

B1: B. bovis AMA-1 Domain I-derived peptide 42437 (peptide)
peptide: YMQKFDIPRNHGSGIYVDLG
modifications: also: 125I radio-iodination, site not given here
Kd [3]: 1.1 µM
percent reduction of binding, chymotrypsin-treated against untreated erythrocytes [4]: 58%
percent reduction of binding, neuraminidase-treated against untreated erythrocytes [4]: 36%
percent reduction of binding, trypsin-treated against untreated erythrocytes [4]: 31%

B2: B. bovis AMA-1 Domain I-derived peptide 42438 (peptide)
peptide: GYESVGSKSYRMPVGKSPVV
modifications: also: 125I radio-iodination in tracer use, site not given here
Kd [3]: 1.3 µM
percent reduction of binding, chymotrypsin-treated against untreated erythrocytes [4]: 66%
